Values joined by “and” are separate entries in the source; they are usually repeats but may differ in a detail not shown here. Equal values may be shown once.
Biological target: Transforming acidic coiled-coil-containing protein 3 (Homo sapiens) (UniProt Q9Y6A5)
Test: inhibition of ARNT PAS-B/TACC3 complex formation – biochemical, AlphaScreen, cherry-picked samples, confirmation (AID 651703);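 further: TACC3 partner is the GST-tagged E629A mutant dimer; hits lower the signal meaning they disrupt ARNT binding to TACC3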
Settings: AlphaScreen His-ARNT PAS-B / GST-TACC3 binding, luminescence

Structure (SMILES) | AC50
Cc1cc(NC(=O)CC(C)C)c(=O)n(Cc2ccccc2F)c1 | 9.6 µM
CCOC(=O)/C(=N/Nc1ccccc1OC)N1CCCc2ccccc21 | 17.3 µM
O=S(=O)(N[C@@H]1CC[C@@H](CCn2cc(-c3ccccn3)nn2)O[C@H]1CO)c1cccc(Cl)c1 | 15.3 µM
CCOc1ccc(C(=O)CCNC(Cc2cnc[nH]2)C(=O)O)cc1 (configuration not stated) | 41.2 µM
Cc1nc2ncccn2c1-c1csc(Nc2ccccc2)n1 | 41.6 µM
O=C(N/N=C\c1cccc([N+](=O)[O-])c1O)C1COc2ccccc2O1 (configuration not stated) | 14.7 µM
CCCCC(=O)NC(c1cccc([N+](=O)[O-])c1)c1ccc2cccnc2c1O (configuration not stated) | 4.22 µM
O=C(Cn1cnc([N+](=O)[O-])n1)N/N=C/c1cc(Cl)ccc1O | 4.77 µM
Oc1ccc(CN2CCc3ccccc3C2)c2cccnc12 | 0.919 µM and 1.08 µM and 2.25 µM
COc1cccc(/C=N/NC(=O)CNC(=O)c2ccncc2)c1O | 64.8 µM
CCSc1nnc(NC(=O)c2ccccn2)s1 | 3.61 µM
O=C(Cn1cncn1)N/N=C/c1cc([N+](=O)[O-])ccc1O | 4.04 µM
COc1cc(/C=N/N(CCO)C2=NS(=O)(=O)c3ccccc32)cc(OC)c1OC | 15.6 µM
Cc1ccc(Nc2c(-c3ccccn3)nc3cccc(C)n23)cc1 | 3.62 µM
O=C(COc1nsnc1N1CCOCC1)N/N=C/c1ccccc1O | 34.9 µM
O=C(CSc1nnc(-c2ccccn2)o1)Nc1ccccc1Cl | 9.92 µM
Cc1nc2ccccc2c(=O)n1/N=C/c1ccc(O)c(O)c1O | 25.9 µM
CCC(=O)NC(c1cc(Cl)c2cccnc2c1O)C(C)C (configuration not stated) | 5.58 µM
Cn1c(CNc2ccccc2O)nc2ccccc21 | 21.8 µM

Structure (SMILES) | AC50
Cc1cccc(S(=O)(=O)N[C@H]2CC[C@H](CCn3cc(-c4ccccn4)nn3)O[C@H]2CO)c1 | 18.5 µM
Cc1nc2ncccn2c1-c1csc(Nc2ccc(O)cc2)n1 | 4.61 µM
Cc1c(C(=O)N(C)C)sc2nc(-c3ccccn3)[nH]c(=O)c12 | 2.78 µM
Cc1ccc(C(=O)Nc2cccc(C(=O)N/N=C/c3ccc(O)cc3)c2)cc1 | 32.7 µM
CCOc1ccc(C2=Nn3c(nnc3-c3ccccn3)SC2)cc1 | 20.4 µM
CCOc1cc(/C=C2\SC(=N)N(c3nccs3)C2=O)ccc1OCCN1CCOCC1 | 35 µM
C/C(=N\NC(=O)C(c1ccccc1)c1ccccc1)c1ccc(O)cc1 | 43.1 µM
CCCn1nc(C(=O)Nc2nc(-c3ccccn3)cs2)c2ccccc2c1=O | 9.63 µM
O=C(Nc1nc(-c2ccccn2)cs1)c1ccc([N+](=O)[O-])o1 | 11.1 µM
O=C(COC(=O)c1ccc([N+](=O)[O-])s1)NCc1ccccc1 | 37 µM
C/C=C/c1ccc([C@@H]2[C@H](CO)N(Cc3ccccn3)[C@H]2CNC(C)=O)cc1 | 47.8 µM
C/C(=N\NC(=O)c1c[nH]c2ccccc12)c1ccc(C)o1 | 16.4 µM
COC(=O)c1ccc(C(=O)O)nc1 | 32.8 µM
Cc1cccc(Nc2nc(-c3ccccn3)nnc2-c2ccccc2)n1 | < 0.5 µM
O=C(Nc1nnc(-c2ccco2)o1)c1ccc(S(=O)(=O)N2CCOCC2)cc1 | 36.1 µM
O=C(N[C@H]1CC[C@H](CCn2cc(-c3ccccn3)nn2)O[C@@H]1CO)c1ccc(F)cc1 | 23.1 µM
O=C(c1ccccn1)N1CC[C@@H]2[C@H](CO)Nc3ccc(Br)cc3[C@@H]21 | 24.1 µM
CCC(=O)NC(c1cc(Cl)c2cccnc2c1O)C1CC1 (configuration not stated) | 9.34 µM
O=C(Oc1cccc2cccnc12)c1ccco1 | 9.83 µM

Structure (SMILES) | AC50
CN(C)C(=O)CSc1cccc2cccnc12 | 4.27 µM
O=C(CSc1ccc2nnc(-c3ccccn3)n2n1)Nc1ccccc1F | 28.6 µM
O=C(CSc1ccc(-c2ccccn2)nn1)Nc1nccs1 | 2.93 µM
CCN(CC)c1ccc(/C=N/NC(=O)c2cnccn2)c(O)c1 | 11.3 µM
c1ccc(N=Nc2ccc3cccccc2-3)cc1 | 1.68 µM
CC(=O)Nc1cccc(C(=O)OCC(=O)Nc2nnc(-c3ccccc3)o2)c1 | 16.3 µM
O=C(N/N=C/c1ccccc1O)C1SCCCS1 | 22.6 µM
COC(=O)c1ccc2[nH]c3c(c2c1)CC(C)CC3 (configuration not stated) | 33.2 µM
Cc1ccc(C)c(CSc2ccc3nnc(-c4ccccn4)n3n2)c1 | 23.3 µM
Cc1ccc(-n2c(-c3ccc(Br)cc3)c[n+]3c2CCc2ccc4cccnc4c2-3)cc1 | 1.45 µM
Oc1c(I)cc(I)c2cccnc12 | 7.46 µM
Nc1nc(-c2ccccn2)nc(N)c1Cc1ccc(Cl)cc1Cl | 2.6 µM
Cc1cc(NC(c2cccnc2)c2ccc3cccnc3c2O)no1 (configuration not stated) | 1.02 µM
CN(C)c1nc(-c2ccccn2)nnc1-c1ccccc1 | < 0.5 µM
O=S(=O)(N[C@@H]1CC[C@@H](CCn2cc(-c3ccccn3)nn2)O[C@@H]1CO)c1cccc(F)c1 | 13.4 µM
O=C(CSc1ccc2nnc(-c3ccccn3)n2n1)Nc1ccc(F)cc1F | 35.4 µM
CCCC(=O)NC(c1ccco1)c1cc([N+](=O)[O-])c2cccnc2c1O (configuration not stated) | 8.21 µM
c1ccc(-c2cnc(Nc3nc(-c4ccccn4)nnc3-c3ccccc3)s2)cc1 | 0.916 µM
O=C(N[C@H]1CC[C@@H](CCn2cc(-c3ccccn3)nn2)O[C@@H]1CO)c1ccccc1 | 15.5 µM
